Laboratory results from paper PMC4414146, “PACE4 inhibitors and their peptidomimetic analogs block prostate cancer tumor progression through quiescence induction, increased apoptosis and impaired neovascularisation” (Oncotarget, 2015).
Like-named read-outs stand apart in the source and are kept apart here. Where a SMILES comes first, the peptide text is derived from it. [ ]: non-standard residue; d: D form. The star is where a group is joined. NOTA = O=C(O)CN1CCN(CC(=O)O)CCN(CC(=O)*)CC1; NH(4-amidinobenzyl) = N=C(N)c1ccc(CN*)cc1

What was measured:
[1] = LNCaP cell-based peptide stability assay; type: in vitro ADME; conditions: human, LNCaP cells, HPLC, read-out: T½ LNCaP cells (converted)
Experimental: (§1) LNCaP cell-based stability assays were performed in Poly-(L)lysine coated 96-wells plates seeded at a density of 1,500 cells/wells. 100 μg of peptides were added 24 hours after plating without media change. Media was collected and mixed with 5 μL of trifluororacetic acid 5% to stop peptide degradation. Ex vivo plasmatic stability assays were performed as previously described. Briefly, compounds (0.5 μg/μL) were incubated with CD1 mouse plasma from mixed-sex animals collected with heparin sodium (Novi, USA). Reaction was stop by addition of 150 μL guanidine HCl and 300 μL of acetonitrile and peptides were extracted by centrifugation. For both in vitro and ex vivo stability assays, peptide stability was assessed from reverse phase HPLC and percentage of remaining peptide was calculated from area under curve and normalized to time 0.

[2] = biological target: T1, human recombinant and soluble PACE4 (Homo sapiens, UniProt P29122); conditions: ref Kwiatkowska et al [22]; cited from earlier work
T1 construct: made in house; host or cells: S2 insect cells (Drosophila Schneider 2)
T1 sequence (P29122 150-969): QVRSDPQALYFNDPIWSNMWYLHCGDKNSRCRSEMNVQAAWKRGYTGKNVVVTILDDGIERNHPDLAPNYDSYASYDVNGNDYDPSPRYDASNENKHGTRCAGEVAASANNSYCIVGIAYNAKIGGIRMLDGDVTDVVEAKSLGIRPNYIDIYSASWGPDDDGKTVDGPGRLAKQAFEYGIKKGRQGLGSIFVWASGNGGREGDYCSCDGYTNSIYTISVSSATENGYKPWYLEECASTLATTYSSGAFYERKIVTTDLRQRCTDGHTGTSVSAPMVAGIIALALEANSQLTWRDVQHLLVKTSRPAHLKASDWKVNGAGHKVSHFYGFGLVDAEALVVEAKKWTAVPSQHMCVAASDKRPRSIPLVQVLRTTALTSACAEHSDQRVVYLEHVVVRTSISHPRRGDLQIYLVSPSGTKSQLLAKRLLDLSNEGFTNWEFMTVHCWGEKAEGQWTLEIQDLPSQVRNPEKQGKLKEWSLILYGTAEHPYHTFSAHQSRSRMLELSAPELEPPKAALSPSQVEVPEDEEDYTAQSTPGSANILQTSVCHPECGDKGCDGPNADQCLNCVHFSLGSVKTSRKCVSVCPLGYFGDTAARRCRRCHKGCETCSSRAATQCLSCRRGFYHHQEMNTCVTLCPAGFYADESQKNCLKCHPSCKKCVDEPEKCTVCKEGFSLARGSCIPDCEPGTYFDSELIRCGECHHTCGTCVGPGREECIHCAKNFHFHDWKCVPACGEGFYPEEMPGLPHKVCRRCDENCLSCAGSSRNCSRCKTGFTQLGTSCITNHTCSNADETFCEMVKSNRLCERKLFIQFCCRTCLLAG

[3] = set-up: method as in Kwiatkowska et al [22]; conditions: ex vivo mouse plasma; ref Kwiatkowska et al [22]; cited from earlier work
[4] = test system: DU145 prostate cancer cell line; type: cell-based; conditions: 72 h
Experimental: (§2) Cell lines were obtained from ATCC and maintained in RPMI-1640 5% FBS (DU145) and 10% FBS (LNCaP). For MTT proliferation assays, peptides were added 24 hours after seeding in 96-well plates as previously described and incubated 72 hours prior to addition of MTT reagent (Sigma-Aldrich, Canada) at final concentration of 1 mg/mL [21, 22]. Formazan salt was solubilized with 100 μL Isopropanol: HCl (24:1N) and metabolic activity was normalized relatively to vehicle-treated cells (Sterile bidistilled water). IC50 were determined using Prism 5.0 (GraphPad Software, USA).

[5] = test system: LNCaP prostate cancer cell line; type: cell-based; conditions: 72 h
Experimental: as §2

[6] = Ex vivo plasmatic stability assay; type: in vitro ADME; conditions: both sexes, CD1; ex vivo mouse plasma; read-out: T½ plasma (converted)
Experimental: as §1

[7] = Pharmacokinetic assay, intravenous 2 mg/kg, LC-MS/MS; type: in vivo; conditions: mouse, plasma, CD1 mice; for AUC: read-out: AUC calculated; for half-life: read-out: Half-life (in vivo plasma); for Vd: read-out: Volume of distribution
Experimental: To determine pharmacokinetic profiles of peptides, a single dose of 2 mg/kg was administered into systemic circulation from tail vein of CD1 mice (n = 4 animal/peptide). Blood was micro sampled on individual mouse at time 2.5, 5, 10, 20, 30 and 60 minutes. Plasma was collected by centrifugation and proteins were cleared from plasma using acetonitrile precipitation and supernatant was filtered using 0.2 μm PVDF centrifugal device (Canadian Life Science, Canada). Sample were analysed at PhenoSwitch Bioscience (Sherbrooke, Canada) by LC-MS/MS on a TripleTOF 5600 mass spectrometer (ABSciex, USA) equipped with DuoSpray source. Further information on mass spectrometry analyses and parameters used are presented in supplementary material.

LNCaP xenograft [8] = experiment: LNCaP xenograft, systemic (iv) administration; type: in vivo, Nu/Nu male mice; conditions: daily 2 mg/kg iv; similar in control group
Experimental: For tumor implantation, trypsin-harvested LNCaP cell suspension was mixed with equal volume of matrigel (BD Biosciences, Bedford, MA) on ice and subcutaneously injected (200 μL) at 4 different sites (left/right hip and left/right shoulder) on Nu/Nu male mice (Charles River Laboratories, LaSalle, Canada) at density of 2 million cells/site. Tumors were periodically measured and the tumor volumes were calculated from the equation: Length•width^2•π/6. When tumors were fully formed and palpable, mice were divided into treatment groups. For intratumoral administration of the compound, 20 μL of peptides (2.5 μg/μL) or vehicle (5% Dimethyl sulfoxide in sterile saline) was administered directly into the tumor at interval of 48 hours. For intra-venous administration experiments, 100 μL of peptide solution (2 mg/kg) or vehicle (saline) was administered through tail vein at interval of 24 hours. The total tumor volume per animal was normalized using the following formula: (total tumor volume/total tumor volume at day 27 × 100). Blood sampling (50–75 μL) from saphenous vein was performed weekly and plasma was stored at −80°C for Prostate-specific antigen (PSA) serum levels determination using a PSA EIA assay (ClinPro International, USA). Mice were housed under pathogen-free conditions and manipulations were performed in a biosafety cabinet. […]

[9] = biological target: T1, human recombinant and soluble PACE4; experiment: Enzymatic assay, inhibition constant toward PACE4; type: biochemical
Experimental: Inhibition constants (Ki) were determined using human recombinant and soluble PACE4 and furin produced in S2 insect cells and purified as previously described. The enzymatic assays were performed as described.

LNCaP xenograft [10] = experiment: LNCaP xenograft, intratumoral administration; type: in vivo, Nu/Nu male mice; conditions: intra-tumoral, 50 μg/tumor per 48 h; vehicle 400 ± 100%
Experimental: For tumor implantation, trypsin-harvested LNCaP cell suspension was mixed with equal volume of matrigel (BD Biosciences, Bedford, MA) on ice and subcutaneously injected (200 μL) at 4 different sites (left/right hip and left/right shoulder) on Nu/Nu male mice (Charles River Laboratories, LaSalle, Canada) at density of 2 million cells/site. Tumors were periodically measured and the tumor volumes were calculated from the equation: Length•width^2•π/6. When tumors were fully formed and palpable, mice were divided into treatment groups. For intratumoral administration of the compound, 20 μL of peptides (2.5 μg/μL) or vehicle (5% Dimethyl sulfoxide in sterile saline) was administered directly into the tumor at interval of 48 hours. For intra-venous administration experiments, 100 μL of peptide solution (2 mg/kg) or vehicle (saline) was administered through tail vein at interval of 24 hours. […] Blood sampling (50–75 μL) from saphenous vein was performed weekly and plasma was stored at −80°C for Prostate-specific antigen (PSA) serum levels determination using a PSA EIA assay (ClinPro International, USA). Mice were housed under pathogen-free conditions and manipulations were performed in a biosafety cabinet. All experimental procedures were in accordance with the Canadian Council on Animal Care.

[11] = test system: DU145 prostate cancer cell line; conditions: MTT assay; ref Kwiatkowska et al [22]; cited from earlier work
[12] = test system: LNCaP prostate cancer cell line; conditions: MTT assay; ref Kwiatkowska et al [22]; cited from earlier work

half-life [1] [h]	clearance [7] [mL/min]	AUC [7] [ng·h/mL]	half-life [7] [min]	Vd [7] [L]	Compound	T½ plasma [3] [h]	also measured
38 ± 8	–	–	–	–	CC(=O)N[C@H](CC(C)C)C(=O)N[C@@H](CC(C)C)C(=O)N[C@@H](CC(C)C)C(=O)N[C@@H](CC(C)C)C(=O)N[C@@H](CCCNC(=N)N)C(=O)N[C@H](C(=O)N[C@@H](CCCCN)C(=O)N[C@@H](CCCNC(=N)N)C(N)=O)C(C)C [Ac-[DLeu]LLLRVKR-NH2]	8 ± 1	Ki PACE4 [2]: 0.023 ± 0.001 µM
> 72	0.5 ± 0.1	2170	9 ± 3	0.006 ± 0.004	CC(=O)N[C@H](CC(C)C)C(=O)N[C@@H](CC(C)C)C(=O)N[C@@H](CC(C)C)C(=O)N[C@@H](CC(C)C)C(=O)N[C@@H](CCCNC(=N)N)C(=O)N[C@H](C(=O)N[C@@H](CCCCN)C(=O)NCc1ccc(C(=N)N)cc1)C(C)C [Ac-[DLeu]LLLRVK-Amba] (Ac-[dL]LLLRVK-{NH(4-amidinobenzyl)})	–	IC50 [4]: 25 ± 10 µM; IC50 [5]: 40 ± 10 µM; half-life at 0.5 μg/μL [6]: 18 ± 3 h; body weight loss (LNCaP xenograft [8]): 10%
–	–	–	–	–	CC(C)C[C@H](NC(=O)[C@H](CC(C)C)NC(=O)[C@H](CC(C)C)NC(=O)[C@@H](CC(C)C)NC(=O)CN1CCN(CC(=O)O)CCN(CC(=O)O)CC1)C(=O)N[C@@H](CCCNC(=N)N)C(=O)N[C@H](C(=O)N[C@@H](CCCCN)C(=O)NCc1ccc(C(=N)N)cc1)C(C)C [NOTA-[DLeu]LLLRVK-Amba] ({NOTA}-[dL]LLLRVK-{NH(4-amidinobenzyl)})	–	Ki PACE4 [9]: 0.006 ± 0.002 µM
–	–	–	–	–	CC(=O)N[C@@H](CC(C)C)C(=O)N[C@@H](CC(C)C)C(=O)N[C@@H](CC(C)C)C(=O)N[C@@H](CC(C)C)C(=O)N[C@@H](CCCNC(=N)N)C(=O)N[C@H](C(=O)N[C@@H](CCCCN)C(=O)NCc1ccc(C(=N)N)cc1)C(C)C [Ac-LLLLRVK-Amba] (Ac-LLLLRVK-{NH(4-amidinobenzyl)})	–	mean tumoral volume at day 59 compared to day 25 (LNCaP xenograft [10]): 100 ± 30%; IC50 [11]: 25 ± 10 µM; IC50 [12]: 40 ± 15 µM
> 72	–	–	–	–	CC(=O)N[C@@H](CC(C)C)C(=O)N[C@@H](CC(C)C)C(=O)N[C@@H](CC(C)C)C(=O)N[C@@H](CC(C)C)C(=O)N[C@@H](CCCN=C(N)N)C(=O)N[C@H](C(=O)N[C@@H](CCCCN)C(=O)NCc1ccc(C(=N)N)cc1)C(C)C [Ac-LLLLRVK-Amba] (Ac-LLLLRVK-{NH(4-amidinobenzyl)})	12 ± 2	–
21 ± 2	0.6 ± 0.1	1670	8 ± 5	0.008 ± 0.007	Ac-LLLLRVKR-NH2 [Ac-LLLLRVKR-NH2]	5.1 ± 0.8	–
